{"source": "patent US12508276B2", "about": "“Use of ginsenoside M1 for treating Huntington's disease” (priority 2018, dated 2025)", "key": {"R6/2 mice [1]": {"system": "R6/2 mice", "assay": "Motor coordination, rotarod apparatus assay in HD disease mice", "assay_type": "in vivo, mouse", "conditions": "30 mg/kg oral daily for 4 weeks from age of 7 weeks, rotarod 12 rpm, 2 min, FIG. 7", "description": "Mice were treated daily with ginsenoside M1 (30 mg/kg of body weight, oral administration) or vehicle for 4 weeks from the age of 7 weeks. Motor coordination was assessed using a rotarod apparatus assay (UGO BASILE, Comerio, Italy) at a constant speed (12 rpm) over a period of 2 min. […] Results were expressed as means±SEM. Multiple groups were analyzed by one-way analysis of variance (ANOVA) followed by a post hoc Student-Newman-Keuls test. ^ap<0.05: between WT and R6/2-vehicle mice. ^bp<0.05: compared to R6/2-vehicle mice."}, "γH2AX": {"system": "γH2AX", "assay": "Expression level of γH2AX by Western blot", "assay_type": "cell-based, mouse", "conditions": "STHdh^Q109 cells, 24 h, vs vehicle-treated STHdh^Q109 cells, FIG. 5", "description": "ATM is now known to regulate DNA repair through the activation of γH2AX. To investigate whether ginsenoside M1 inhibited the expression level of γH2AX, […]7 and […] cells were treated with 10 and 30 μM ginsenoside M1 or vehicle (DMSO) for 24 h. The expression level of γH2AX was measured by Western blot."}, "R6/2 mice [2]": {"system": "R6/2 mice", "assay": "Lifespan of HD disease mice", "assay_type": "in vivo, mouse", "conditions": "30 mg/kg oral daily for 4 weeks from age of 7 weeks, FIG. 8", "description": "Mice were treated daily with ginsenoside M1 (30 mg/kg of body weight, oral administration) or vehicle for 4 weeks from the age of 7 weeks, and the lifespan of mice was determined. […] Results were expressed as means±SEM. Multiple groups were analyzed by one-way analysis of variance (ANOVA) followed by a post hoc Student-Newman-Keuls test. ^ap<0.05: between WT and R6/2-vehicle mice. ^bp<0.05: compared to R6/2-vehicle mice."}, "p53": {"system": "p53", "assay": "Phosphorylation level of p53 by Western blot", "assay_type": "cell-based, mouse", "conditions": "STHdh^Q109 cells, 24 h, vs vehicle-treated STHdh^Q109 cells, FIG. 6", "description": "p53 plays a role in the regulation of the cell cycle and apoptosis. p53 becomes activated in response to DNA damage and oxidative stress. To investigate whether ginsenoside M1 inhibited the phosphorylation level of […]7 and […] cells were treated with 10 and 30 μM ginsenoside M1 or vehicle (DMSO) for 24 h. The phosphorylation level of p53 was measured by Western blot."}, "STHdh^Q109 cells [3]": {"system": "STHdh^Q109 cells", "assay": "Cellular ROS production (H2DCFDA fluorescence)", "assay_type": "cell-based, mouse", "conditions": "1 h, FIG. 2", "description": "Oxidative stress is one of the important events triggers cell death in STHdh^Q109 cells. To investigate whether ginsenoside M1 inhibited cell death of STHdh^Q109 cells by reducing oxidative stress, STHdh^Q109 cells were treated with 1, 10 and 30 μM ginsenoside M1 or vehicle (DMSO) in the presence of 10 μM intracellular ROS indicator fluorescent probe 2,7-dichlorodihydrofluorescein diacetate (H2DCFDA; Molecular Probes, Inc., Eugene, Oregon, USA) for 1 h. Cellular ROS contents were measured by detecting the fluorescence intensity (Excitation/Emission: 488 nm/510 nm) using a fluorescence plate reader (Fluoroskan Ascent; Thermo Electron Corporation, Woburn, MA, USA). […] The results are express as the means±SEM of triplicate samples. Multiple groups will analyze with one-way analysis of variance (ANOVA), follow by a post-hoc Student-Newman-Keuls test. p value of <0.05 will considered significant. ^ap<0.05: compared to untreated (vehicle-treated) STHdh^Q109 cells."}, "mHtt aggregate": {"system": "mHtt aggregate", "assay": "mHtt aggregates in striatal lysates, filter retardation assay", "assay_type": "in vivo, mouse", "conditions": "R6/2 mice, 30 mg/kg oral daily for 4 weeks from age of 7 weeks, FIG. 9", "description": "Mice were treated daily with ginsenoside M1 (30 mg/kg of body weight, oral administration) or vehicle for 4 weeks from the age of 7 weeks. The amount of mHtt aggregates in striatal lysates was analyzed by a filter retardation assay. Brain tissues were suspended and homogenized in ice-cold THE buffer, mixed with 2% SDS. Samples were first passed through OE66 membrane filters ([…] pore size; Whatman Schleicher and Schuell, Middlesex, UK) in a slot-blot manifold (Bio-Rad, Irvine, CA, USA). Insoluble aggregates retained on the filters were detected using an anti-Htt antibody."}, "ATM": {"system": "ATM", "assay": "Phosphorylation level of ATM by Western blot", "assay_type": "cell-based, mouse", "conditions": "STHdh^Q109 cells, 24 h, vs vehicle-treated STHdh^Q109 cells, FIG. 4", "description": "ATM is activated by DNA damage and plays important role in the phosphorylation of AMPK. To investigate whether ginsenoside M1 inhibited ATM activation, […]7 and […] cells were treated with 10 and 30 μM ginsenoside M1 or vehicle (DMSO) for 24 h. The phosphorylation level of ATM was measured by Western blot."}, "AMPK": {"system": "AMPK", "assay": "Phosphorylation level of AMPK by Western blotting", "assay_type": "cell-based, mouse", "conditions": "STHdh^Q109 cells, 24 h, vs vehicle-treated STHdh^Q109 cells, FIG. 3", "description": "Activation of AMPK promotes the pathogenesis of HD [37]. To investigate whether ginsenoside M1 inhibited AMPK activation, […]7 and […] cells were treated with 10 and 30 μM ginsenoside M1 or vehicle (DMSO) for 24 h. The phosphorylation level of AMPK was measured by Western blotting."}, "STHdh^Q109 cells [4]": {"system": "STHdh^Q109 cells", "assay": "MTT reduction assay, survival rate of mHtt expression cells", "assay_type": "cell-based, mouse", "conditions": "24 h", "from_the_text": "Conditionally immortalized wild-type […]7 striatal neuronal progenitor cells expressing endogenous normal htt (referred to as wild-type striatal cells), and homozygous mutant […] striatal neuronal progenitor cells from homozygous […] knock-in mice expressing mutant htt with 109 glutamines (referred to as mutant striatal […] and […] cells were generous gifts from Dr. Elena Cattaneo and […] (Department of pharmacological sciences and centre for stem cell research, University of Milano, Italy). These cells were maintained in an incubation chamber at 33° C. in Dulbecco's modified Eagle's medium (DMEM) supplemented with 10% fetal bovine serum (FBS). […]7 and […] cells were treated with 30 μM ginsenoside M1 or vehicle (DMSO) for 24 h. […]7 and […] cells death was quantified by the MTT reduction assay. […] At the end of experiments, cells were incubated in culture medium with 0.5 mg/ml MTT at 37° C. for 2 h. The culture medium was then replaced with DMSO to dissolve the MTT formazan precipitates, which was followed by the measurement of the absorbance at 570 nm using a microplate reader (OPTImax tunable plate reader, Molecular Device, Sunnyvale, CA, USA). The survival rate of the indicated cells was normalized to those survival rate of untreated (vehicle-treated) […]7 cells. As shown in the FIG. 1A, the survival rate of untreated (vehicle-treated) […] cells was lower than that of untreated (vehicle-treated) […]7 cells. […] To confirm the cyto-protective effect of ginsenoside […] cells were treated with 1, 10 and 30 μM ginsenoside M1 or vehicle (DMSO) for 24 h. […] The results are express as the means±SEM of triplicate samples."}}}
{"smiles": "CC(C)=CCC[C@](C)(O[C@@H]1O[C@H](CO)[C@@H](O)[C@H](O)[C@H]1O)[C@H]1CC[C@]2(C)[C@@H]1[C@H](O)C[C@@H]1[C@@]3(C)CC[C@H](O)C(C)(C)[C@@H]3CC[C@]12C", "note": "[ginsenoside M1, 20-O-β-D-glucopyranosyl-20(S)-protopanaxadiol]", "values": [{"measurement": "motor coordination", "setting": "R6/2 mice [1]", "result": "increased significantly"}, {"measurement": "expression level of γH2AX", "setting": "γH2AX; 10 μM", "result": "significantly reduced"}, {"measurement": "expression level of γH2AX", "setting": "γH2AX; 30 μM", "result": "significantly reduced"}, {"measurement": "lifespan", "setting": "R6/2 mice [2]", "result": "significantly prolonged"}, {"measurement": "phosphorylation level of p53", "setting": "p53; 10 μM", "result": "significantly reduced"}, {"measurement": "phosphorylation level of p53", "setting": "p53; 30 μM", "result": "significantly reduced"}, {"measurement": "ROS production", "setting": "STHdh^Q109 cells [3]; 10 μM", "result": "significantly reduced"}, {"measurement": "ROS production", "setting": "STHdh^Q109 cells [3]; 30 μM", "result": "significantly reduced"}, {"measurement": "mHtt aggregate formation in the striatum", "setting": "mHtt aggregate", "result": "reduced"}, {"measurement": "phosphorylation level of ATM", "setting": "ATM; 10 μM", "result": "significantly reduced"}, {"measurement": "phosphorylation level of ATM", "setting": "ATM; 30 μM", "result": "significantly reduced"}, {"measurement": "phosphorylation level of AMPK", "setting": "AMPK; 10 μM", "result": "significantly reduced"}, {"measurement": "phosphorylation level of AMPK", "setting": "AMPK; 30 μM", "result": "significantly reduced"}, {"measurement": "survival rate", "setting": "STHdh^Q109 cells [4]; 10 μM, FIG. 1B", "result": "significantly increased"}, {"measurement": "survival rate", "setting": "STHdh^Q109 cells [4]; 30 μM, FIG. 1A", "result": "significantly increased"}, {"measurement": "survival rate", "setting": "STHdh^Q109 cells [4]; 30 μM, FIG. 1B", "result": "significantly increased"}]}
